# Assay results reported in patent US20210038626A1, “COMPOSITIONS COMPRISING AND METHODS OF USING INHIBITORS OF SODIUM-GLUCOSE COTRANSPORTERS 1 AND 2” (Lexicon Pharmaceuticals, Inc., priority 2011, published 2021).
# Columns and labels:
# [1] = test system: patients with type 2 diabetes mellitus; assay: Phase 2a clinical trial, liquid oral dosage form once daily for 28 days; format: in vivo, human
# Protocol: Certain aspects of this invention may be understood with reference to the figures. FIGS. 1-10 show results obtained from a randomized, double-blind, placebo controlled Phase 2a clinical trial, wherein 150 mg and 300 mg doses of (2S,3R,4R,5S,6R)-2-(4-chloro-3-(4-ethoxybenzyl)phenyl)-6-(methylthio)tetrahydro-2H-pyran-3,4,5-triol were orally administered in solution once daily to patients with type 2 diabetes mellitus. FIG. 11 provides results obtained from a Phase 1 clinical trial, wherein both solid and liquid oral dosage forms of the compound were administered to patients with type 2 diabetes mellitus.
# This invention is based, in part, on findings obtained from a randomized, double-blind, placebo controlled Phase 2a clinical trial, wherein 150 mg/day and 300 mg/day doses of a compound of the invention were orally administered in a liquid to patients with type 2 diabetes mellitus. The compound was (2S,3R,4R,5S,6R)-2-(4-chloro-3-(4-ethoxybenzyl)phenyl)-6-(methylthio)tetrahydro-2H-pyran-3,4,5-triol, which has the structure:
# Patients (n=36) with type 2 diabetes mellitus received one of two oral doses of (2S,3R,4R,5S,6R)-2-(4-chloro-3-(4-ethoxybenzyl)phenyl)-6-(methylthio)tetrahydro-2H-pyran-3,4,5-triol, given as 150 mg or 300 mg once daily, or matching placebo, for 28 days in solution.
# In this study, patients on metformin were taken off of the drug 16 days prior to day 0, the day dosing first began.
# [2] = test system: human SGLT1 / human SGLT2; details: ratio of human SGLT1 IC50 to human SGLT2 IC50
# Protocol: HEK293 cells were transfected with the human HA-SGLT2-pIRESpuro2 vector and the bulk stable cell line was selected in presence of 0.5 μg/ml of puromycin. Human HA-SGLT2 cells were maintained in DMEM media containing 10% FBS, 1% GPS and 0.5 μg/ml of puromycin.
# The HEK293 cells expressing the human HA-SGLT2 were seeded in 384 well plates (30,000 cells/well) in DMEM media containing 10% FBS, 1% GPS and 0.5 μg/ml of puromycin, then incubated overnight at 37 C, 5% CO2. Cells were then washed with uptake buffer (140 mM NaCl, 2 mM KCl, 1 mM CaCl2, 1 mM MgCl2, 10 mM HEPES, 5 mM Tris, 1 mg/ml bovine serum albumin (BSA), pH 7.3). Twenty microliters of uptake buffer with or without testing compounds were added to the cells. […] After washing the cells with uptake buffer, scintillation fluid was added (40 microliters/well) and ^14C-AMG uptake was measured by counting radioactivity using a scintillation coulter (TopCoulter NXT; Packard Instruments).
# Cells were then washed with uptake buffer (140 mM NaCl, 2 mM KCl, 1 mM CaCl2, 1 mM MgCl2, 10 mM HEPES, 5 mM Tris, 1 mg/ml bovine serum albumin (BSA), pH 7.3). […] After washing the cells with uptake buffer, scintillation fluid was added (40 microliters/well) and ^14C-AMG uptake was measured by counting radioactivity using a scintillation coulter (TopCoulter NXT; Packard Instruments).
# [3] = test system: patients with type 2 diabetes mellitus; assay: Phase 1 clinical trial comparing solid and liquid oral dosage forms, single 300 mg dose, crossover; format: in vivo, human; details: single doses
# Protocol: This invention is further based on findings obtained from a randomized, double-blind, placebo controlled Phase 1 clinical trial that compared liquid and solid dosage forms of the compound.
# Patients (n=12) with type 2 diabetes mellitus received one of three oral formulations of 300 mg of (2S,3R,4R,5S,6R)-2-(4-chloro-3-(4-ethoxybenzyl)phenyl)-6-(methylthio)tetrahydro-2H-pyran-3,4,5-triol before breakfast: as two 150 mg tablets, six 50 mg tablets, or 30 mL of 10 mg/mL solution in a randomized sequence implementing a Latin Square crossover design, with a 5-day washout between doses.
# Changes in urinary glucose excretion, fasting plasma glucose (FPG), insulin, postprandial glucose (PPG), peptide YY (PYY), and glucagon-like peptide-1(GLP-1) were measured at days −1, 1, 6, and 11.
# [4] = 150 mg and 300 mg once daily, 28 days
smiles,measurement,setting,value
"CCOc1ccc(Cc2cc([C@@H]3O[C@H](SC)[C@@H](O)[C@H](O)[C@H]3O)ccc2Cl)cc1 [(2S,3R,4R,5S,6R)-2-(4-chloro-3-(4-ethoxybenzyl)phenyl)-6-(methylthio)tetrahydro-2H-pyran-3,4,5-triol]",glucosuria compared to placebo,"[1]; 150 mg and 300 mg once daily, 28-day dosing period, preliminary data",significant and sustained glucosuria
same,adverse events,[1]; [4],"generally mild and evenly distributed across all dose groups, including placebo"
same,dose-limiting toxicities,[1]; [4],no evidence of dose-limiting toxicities
same,glucose tolerance (FIG. 2),[1]; 150 mg/day and 300 mg/day treatment groups vs placebo,greater glucose tolerance than those in the placebo group
same,plasma glucose levels (FIG. 1),"[1]; 150 mg/day and 300 mg/day treatment groups, upon treatment","rapid, statistically significant decrease"
same,post-prandial glucose levels (FIG. 5),[1]; 150 mg/day and 300 mg/day vs placebo,"rapid, statistically significant decrease"
same,"insulin sensitivity, homeostatic model assessment (HOMA) (FIG. 4)","[1]; 150 mg/day and 300 mg/day vs placebo, day 27",improved insulin sensitivity compared to placebo
same,mean diastolic and systolic blood pressures (FIGS. 8 and 9),"[1]; 150 mg/day and 300 mg/day, after 28 days of dosing, vs placebo",decreased mean diastolic and systolic blood pressures
same,mean arterial pressures (FIG. 10),"[1]; 150 mg/day and 300 mg/day, day 28 vs baseline",also decreased
same,mean HbA1c levels (FIG. 7),"[1]; 150 mg/day and 300 mg/day, four weeks",marked decrease
same,SGLT1 IC50: SGLT2 IC50 ratio,[2],about 20
same,FPG and PPG levels,[3],markedly improved
same,GLP-1 and PYY levels,[3],increased
